Where no end group is shown, it is not given here.
How the values were obtained:
Type in all cases: binding, human
[1] = test system: IgE antibodies from patients; assay: Epitope mapping (2): overlapping 10-amino-acid peptide fragments shifted by one amino acid; details: positions numbered within the 15-amino-acid epitope; serum of 5 patients
Description: On the basis of the sequences (SEQ ID NOs: 150-154 for alpha-actinin-3, SEQ ID NO: 155 for EEF1A2 binding protein-like, SEQ ID NOs: 156 and 157 for alpha-1,4-glucan phosphorylase, SEQ ID NOs: 158 and 159 for elongation factor 2, SEQ ID NOs: 160-162 for heat shock cognate 70 kDa protein, SEQ ID NOs: 163-167 for serotransferrin, SEQ ID NOs: 168-171 for myosin binding protein H-like, SEQ ID NOs: 172-174 for desmin (fragment), SEQ ID NOs: 175-178 for capping protein (actin filament) muscle Z-line beta, SEQ ID NOs: 179-185 for myosin heavy chain, fast skeletal muscle-like, SEQ ID NO: 186 for glycogen phosphorylase, muscle form-like, SEQ ID NOs: 187-196 for myosin-binding protein C, fast-type-like, SEQ ID NO: 197 for ATP synthase subunit beta, mitochondrial, SEQ ID NO: 198 for L-lactate dehydrogenase A chain-like, SEQ ID NO: 199 for aldolase, SEQ ID NOs: 200-202 for β-enolase, and SEQ ID NOs: 203 and 204 for glyceraldehyde-3-phosphate dehydrogenase) of the peptides bound to an IgE antibody in serum in a patient-specific manner as described above in (A), a library of overlapping peptide fragments (length: 10 amino acids) was prepared using the sequences of the peptides and sequences in which sequences were added so as to flank each peptide in the amino acid sequences of allergen components (SEQ ID NO: 2 for alpha-actinin-3, SEQ ID NO: 5 for EEF1A2 binding protein-like, SEQ ID NO: 10 for alpha-1,4-glucan phosphorylase, SEQ ID NO: 19 for elongation factor 2, SEQ ID NO: 26 for heat shock cognate 70 kDa protein, SEQ ID NO: 33 for serotransferrin, SEQ ID NO: 43 for myosin binding protein H-like, SEQ ID NO: 56 for desmin (fragment), SEQ ID NO: 61 for capping protein (actin filament) muscle Z-line beta, SEQ ID NO: 70 for myosin heavy chain, fast skeletal muscle-like, SEQ ID NO: 110 for glycogen phosphorylase, muscle form-like, SEQ ID NO: 121 for myosin-binding protein C, fast-type-like, SEQ ID NO: 138 for ATP synthase subunit beta, mitochondrial, SEQ ID NO: 144 for L-lactate dehydrogenase A chain-like, SEQ ID NO: 445 for aldolase, SEQ ID NO: 446 for β-enolase, and SEQ ID NO: 447 for glyceraldehyde-3-phosphate dehydrogenase) comprising the sequences of the peptide. Epitope mapping was carried out using the library.
The peptides to be synthesized were shifted by one amino acid.
The library was prepared by the same procedure as described above in (A), and the presence or absence of binding of an IgE antibody present in the serum of a patient and a non-fish-allergic subject to each peptide fragment was measured by the same technique as described above. Amino acids at positions where the binding activity against IgE antibodies from patients were lost or decreased in the peptides shifted by one amino acid while binding activity against IgE antibodies from non-fish-allergic subjects arose were confirmed as amino acids adversely affecting the specificity of binding to IgE antibodies.
Chemiluminescence intensity in images obtained by measurement was converted into a numeric value in the same manner as in (A) using ImageQuant TL (GE Healthcare). […]

[2] = test system: IgE antibody from one patient having allergies to salmons and bastard halibut; assay: Confirmation of epitope cross-reactivity (ELISA, FIG. 5); details: for binding of IgE antibody to peptide: serum of fish-allergic patient with symptoms to salmon and bastard halibut vs serum mixture from 4 non-fish-allergic subjects, FIG. 5
Description: FIG. 5 is a diagram showing results of measuring […] using the sera of a fish-allergic patient and a non-fish-allergic subject as to a peptide of epitope No. 11 (SEQ ID NO: 160) having the amino acid sequence “SMVLVKMKEIAEAYL” derived from salmon heat shock cognate 70 kDa protein, and a peptide having the amino acid sequence “AMVLVKMKETAEAYL” derived from bastard halibut heat shock cognate 70 kDa protein. The numeric values on the ordinate represent absorbance for light at a wavelength of 450 nm.
Amino acids other than particularly important amino acids in the region (SEQ ID NO: 250) important for binding, in epitope No. 11 having the amino acid sequence “SMVLVKMKEIAEAYL” (SEQ ID NO: 160) found in salmon heat shock cognate 70 kDa protein in Table 3 were defined as any given amino acid (X). NCBI was searched for proteins having the resulting amino acid sequence “EXXXXYL” (SEQ ID NO: 248). As a result, the amino acid sequence “AMVLVKMKETAEAYL” (SEQ ID NO: 451) of bastard halibut heat shock 70 kDa protein (accession number: XP_019944736.1) was identified. […]
To be specific, ELISA was carried out according to the following procedure. • (1) The concentrations of the biotinylated peptides were adjusted to 1 μg/mL with PBST. • (2) Each peptide solution was added at 40 μL to each well of a 384-well plate coated with streptavidin, and shaken at room temperature for one hour. […] Absorbance at 450 nm was measured.
A peptide having this amino acid sequence “AMVLVKMKETAEAYL” of bastard halibut heat shock 70 kDa protein and a peptide having the amino acid sequence “SMVLVKMKEIAEAYL” of salmon heat shock cognate 70 kDa protein were each prepared by the same procedure as in Example 10(A), and the presence or absence of binding thereto of IgE antibodies present in the serum of a fish-allergic patient having allergy symptoms to salmon and bastard halibut and the serum of a non-fish-allergic subject (serum mixture from 4 subjects) was measured by the same technique as therein.

[3] = test system: IgE antibody in the serum of a fish-allergic patient; assay: Immunoblotting of two-dimensional electrophoresis patterns of fish meat proteins with patient serum; details: for spots detected by immunoblotting, different from spots with serum of non-fish-allergic subject: proteins contained in salmon meat; for specific binding to IgE antibodies from fish-allergic patients: spots in two-dimensional electrophoresis gel of proteins in fish, patients diagnosed with immediate-type allergy
Experimental: Proteins contained in fish were analyzed by the aforementioned technique to identify antigens of an allergy to fish. To be specific, proteins were extracted from fish meat and subjected to two-dimensional electrophoresis under the conditions described below.
The electrophoresis in the first dimension was isoelectric focusing, which was performed using isoelectric focusing gels with a gel-strip length of 5 to 10 cm and a gel pH range of 3 to 10. The pH gradient of the gels in the direction of electrophoresis was as follows: with the total gel-strip length being taken as 1, the gel-strip length up to pH 5 was “a=0.15 to 0.3”, the gel-strip length from pH 5 to 7 was “b=0.4 to 0.7”, and the gel-strip length above pH 7 was “c=0.15 to 0.3”. More specifically, the isoelectric focusing was performed using the IPG gels, Immobiline Drystrip (pH3-10NL), produced by GE Healthcare Bio-Sciences Corporation (hereinafter abbreviated as “GE”). The electrophoresis system used was IPGphor produced by GE. The maximum current of the electrophoresis system was limited to 75 μA per gel strip. The voltage program adopted to perform the first-dimensional isoelectric focusing was as follows: (1) a constant voltage step was performed at a constant voltage of 300 V until the volt-hours reached 750 Vhr (the current variation width during electrophoresis for 30 minutes before the end of this step was 5 μA); (2) the voltage was increased gradually to 1000 V for 300 Vhr; (3) the voltage was further increased gradually to 5000 V for 4500 Vhr; and then (4) the voltage was held at a constant voltage of 5000 V until the total Vhr reached 12000.
The electrophoresis in the second dimension was SDS-PAGE, which was performed using polyacrylamide gels whose gel concentration at the distal end in the direction of electrophoresis was set to 3 to 6% and whose gel concentration at the proximal end was set to a higher value than that at the distal end. More specifically, the SDS-PAGE was performed using NuPAGE 4-12% Bris-Tris Gels (IPG well, Mini, 1 mm) produced by Life Technologies. The electrophoresis system used was XCell SureLock Mini-Cell produced by Life Technologies. The electrophoresis was run at a constant voltage of 200 V for about 45 minutes using an electrophoresis buffer composed of 50 mM MOPS, 50 mM Tris base, 0.1% (w/v) SDS and 1 mM EDTA.
Identification of antigens by immunoblotting was carried out by taking all the steps up to the step of “Second-dimensional SDS-PAGE” as described above in Example 1, followed by the steps of “Transfer to membrane”, “Immunoblotting” and “Analysis” as described below.
To be specific, proteins in the second-dimensional electrophoresis gels were transferred to a membrane (PVDF membrane) according to the following procedure. • (1) The PVDF membrane was immersed in 100% methanol followed by milliQ water, and then moved into the transfer buffer to hydrophilize the PVDF membrane. • (2) After sponge, filter paper, the second-dimensional electrophoresis gels treated by second-dimensional SDS-PAGE, the hydrophilized PVDF membrane, filter paper, and sponge were put in place in this order, the transfer system was energized at a constant voltage of 30 V for one hour. Immunoblotting
Immunoblotting of the membrane was carried out using, as a primary antibody, a serum sample from patient 1 with a fish allergy or a serum sample from a non-fish-allergic subject. This fish-allergic patient 1 was a patient diagnosed with immediate-type allergy to fish. […]

[4] = serum from fish-allergic patient 3 (FIG. 1B right)

Question: How did the “Positions of amino acids of region important for binding in epitope” value [1] turn out when “11 (SMVLVKMKEIAEAYL; not fully specified (N-terminus)) [compound 11]” was run?
Answer: 9-15

Question: And the epitope cross-reactivity ([2]; between fish species)?
Answer: cross-reactivity between the fish species salmon and bastard halibut

Question: How did the “binding of IgE antibody to peptide” value [2] turn out when “SMVLVKMKEIAEAYL (not fully specified (N-terminus)) [Epitope No. 11]” was run?
Answer: bound in a patient-specific manner

Question: How did the “binding of IgE antibody to peptide” value [2] turn out when “AMVLVKMKETAEAYL (not fully specified (N-terminus))” was run?
Answer: bound in a patient-specific manner

Question: What does the source list for “L-lactate dehydrogenase A chain-like [Spot 14]”?
Answer: spots detected by immunoblotting, different from spots with serum of non-fish-allergic subject ([3]; serum from fish-allergic patient 2 (FIG. 1B left)): newly detected; specific binding to IgE antibodies from fish-allergic patients [3]: specific binding to IgE antibodies

Question: “ATP synthase subunit beta, mitochondrial [Spot 13]” was tested. Which “spots detected by immunoblotting, different from spots with serum of non-fish-allergic subject” value [3, 4] did it give?
Answer: newly detected

Question: What about the “specific binding to IgE antibodies from fish-allergic patients” value [3] of the same substance?
Answer: specific binding to IgE antibodies

Question: What does the source list for “Myosin heavy chain, fast skeletal muscle-like [Spot 10]”?
Answer: spots detected by immunoblotting, different from spots with serum of non-fish-allergic subject [3, 4]: newly detected; specific binding to IgE antibodies from fish-allergic patients [3]: specific binding to IgE antibodies

Question: Elongation factor 2 [Spot 4] was tested. Which “specific binding to IgE antibodies from fish-allergic patients” value [3] did it give?
Answer: specific binding to IgE antibodies
